Here are results for five compounds from ChEMBL document CHEMBL1201862, “PubChem BioAssay data set” (2004).

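Compound exposure: 48 hours, 5 concentrations, 96-well plates. GI50 is the concentration that inhibits growth by half.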 Activity calls are given as the source filed them. No stated cut-off is given here; in the data, active = GI50 up to about 1.1 µM and inactive = higher. Some results are limits rather than exact numbers.

Holding throughout (assay): DTP human tumour cell line panel, 48 h
For test [1], the system named is ACHN.
Test [2] relates to COLO 205.
Test [3] relates to EKVX.
Test [4] relates to HCT-15.
For test [5], the system named is HL-60.
The test system of test [6] is K562.
The subject of test [7] is KM12.
In test [8] the test system is M14.
For test [9], the system named is Malme-3M.
Test [10] concerns NCI-H522.
Test [11] concerns OVCAR-4.
In test [12] the test system is OVCAR-8.
The test system of test [13] is PC-3.
For test [14], the system named is SF-268.
Test [15] relates to SF-295.
Test [16] has as its system SK-MEL-28.
Test [17] deals with SK-MEL-5.
For test [18], the system named is SK-OV-3.
Test [19] concerns SNB-75.
Test [20] concerns SW-620.

In the case of `COC(=O)[C@@H]1C=CCN1S(=O)(=O)c1ccc(C)cc1`, the GI50 (in general, the concentration at which growth is held to half of that of the control) was > 100 µM (inactive) in test [1]; > 100 µM (inactive) in test [2]; > 100 µM (inactive) in test [3]; 37.5 µM in test [4]; 24.2 µM (inactive) in test [5]; 31.9 µM (inactive) in test [6]. The GI50 in test [7] is > 100 µM (inactive); in [8] it was 48.1 µM (inactive); in test [9], 71.6 µM (inactive); in test [10], 98.4 µM (inactive); in [11] it was > 100 µM (inactive); in test [12] it was > 100 µM (inactive). Also, the GI50 in test [13] is > 100 µM (inactive); in test [14] it was > 100 µM (inactive); in test [15], > 100 µM (inactive); in test [16] it was 93.1 µM (inactive); in [17] it was 59.6 µM (inactive); in test [18] it was > 100 µM (inactive). In addition, the GI50 in test [19] and in test [20] was > 100 µM (inactive) each time.

Turning to `CC1CCC(=O)C(C(=O)CC2CC(=O)N(C)C(=O)C2)C1` (stereo not given), the GI50 in test [1] was > 100 µM (inactive); in [2], > 100 µM (inactive); in test [3], > 100 µM (inactive); in test [4], > 100 µM; in test [5] it was > 100 µM (inactive); in test [6], > 100 µM (inactive). The GI50 in [7], in test [8], in test [9], in [10], in [11] and in [12] was > 100 µM (inactive) in each case. In addition, the GI50 in test [13], in [14], in test [15], in [16], in [17] and in [18] was > 100 µM (inactive) throughout. In addition, the GI50 in test [19] is 35.3 µM (inactive); in test [20], > 100 µM (inactive).

Take `Cc1ccc(C(=O)C(Cl)C(Cl)c2ccc(C)cc2)cc1` (stereo not given): the GI50 was 1.72 µM (inactive) in test [1]; 2.07 µM (inactive) in [2]; 5.42 µM (inactive) in [3]; 1.83 µM in test [4]; 1.24 µM (inactive) in test [5]; 1.49 µM (inactive) in [6]. Besides, the GI50 in test [7] was 3.68 µM (inactive); in test [8], 4.71 µM (inactive); in test [9], 15.3 µM (inactive); in test [10], 2.52 µM (inactive); in test [11], 2.33 µM (inactive); in test [12] it was 2.72 µM (inactive). For the same compound, the GI50 in [13] is 5 µM (inactive); in test [14] it was 5.56 µM (inactive); in test [15], 11.4 µM (inactive); in test [16], 2.68 µM (inactive); in test [17] it was 2.34 µM (inactive); in test [18] it was 15.2 µM (inactive). In addition, the GI50 in test [19] was 8.22 µM (inactive); in test [20], 2.39 µM (inactive).

Consider `CN(C)CCNC(=O)c1cccc2nc3c4ccccc4c4ccccc4c3nc12`, for which the GI50 in test [1] is 5.01 µM (inactive); in [2] it was 3.89 µM (inactive); in [3], 5.77 µM (inactive); in test [4] it was 1.69 µM; in test [5], 1.76 µM (inactive); in test [6] it was 1.52 µM (inactive). In addition, the GI50 was 1.56 µM (inactive) in test [7]; 2.29 µM (inactive) in test [8]; 1.8 µM (inactive) in test [9]; 2.71 µM (inactive) in test [10]; 1.8 µM (inactive) in [11]; 2.02 µM (inactive) in test [12]. The GI50 is 1.65 µM (inactive) in [13]; 0.569 µM (active) in [14]; 2.16 µM (inactive) in test [15]; 1.79 µM (inactive) in test [16]; 3.37 µM (inactive) in test [17]; 6.52 µM (inactive) in test [18]. In addition, the GI50 in [19] was 2.52 µM (inactive); in test [20], 1.58 µM (inactive).

As to `O=[N+]([O-])c1ccc2[nH]nc(OCc3ccccc3Cl)c2c1`, the GI50 in [1] is 19.8 µM (inactive); in [2], > 100 µM (inactive); in test [3], 54.2 µM (inactive); in test [4], 85.5 µM; in test [5], > 100 µM (inactive); in test [6], > 100 µM (inactive). Moreover, the GI50 in test [7] was 91.4 µM (inactive); in [8], > 100 µM (inactive); in [9], 98.9 µM (inactive); in [10] it was 17.1 µM (inactive); in test [11] it was 41.3 µM (inactive); in [12], 27 µM (inactive). The GI50 in test [13] was > 100 µM (inactive); in [14], 68.7 µM (inactive); in [15] it was 42.6 µM (inactive); in test [16], > 100 µM (inactive); in [17], 26.5 µM (inactive); in test [18], 13.8 µM (inactive). Moreover, the GI50 was 81.5 µM (inactive) in test [19] and > 10 µM (inactive) in test [20].
